Reference: patent publication US20210045385A1, “PYRIDAZINONE-SUBSTITUTED KETOXIMES AS HERBICIDES” (FMC Corporation, priority 2018, published 2021)

Experiments:
Type in all cases: in vivo
[1] = test system: galium (catchweed bedstraw, Galium aparine); assay: Test A postemergence, visual plant response rating; conditions: for Galium plant response rating (0 to 100 scale): 500 g ai/ha, postemergence, 0 is no effect, 100 is complete control; for Galium plant response rating: Postemergence, 125 g ai/ha, 0 to 100 scale (0 no effect, 100 complete control)
In short: (§1)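 Preemergence: seeds in loam/sand blend given directed soil spray of compound in non-phytotoxic solvent with surfactant. Postemergence: plants 2–10 cm, one- to two-leaf stage, sprayed with same formulation. Visual injury rated vs untreated controls after ~10 days in greenhouse, 0 (no effect) to 100 (complete control).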

[2] = test system: corn (Zea mays); assay: Test A postemergence, visual plant response rating; conditions: for Corn plant response rating (0 to 100 scale): 500 g ai/ha, postemergence, 0 is no effect, 100 is complete control; for Corn plant response rating: Postemergence, 125 g ai/ha, 0 to 100 scale (0 no effect, 100 complete control)
In short: as §1

[3] = test system: foxtail, giant (giant foxtail, Setaria faberii); assay: Test A postemergence, visual plant response rating; conditions: for Foxtail, Giant plant response rating (0 to 100 scale): 500 g ai/ha, postemergence, 0 is no effect, 100 is complete control; for Foxtail, Giant plant response rating: Postemergence, 125 g ai/ha, 0 to 100 scale (0 no effect, 100 complete control)
In short: as §1

[4] = test system: ragweed (common ragweed, Ambrosia elatior); assay: Test A postemergence, visual plant response rating; conditions: for Ragweed plant response rating (0 to 100 scale): 500 g ai/ha, postemergence, 0 is no effect, 100 is complete control; for Ragweed plant response rating: Postemergence, 125 g ai/ha, 0 to 100 scale (0 no effect, 100 complete control)
In short: as §1

[5] = test system: barnyardgrass (Echinochloa crus-galli); assay: Test A postemergence, visual plant response rating; conditions: for Barnyardgrass plant response rating (0 to 100 scale): 500 g ai/ha, postemergence, 0 is no effect, 100 is complete control; for Barnyardgrass plant response rating: Postemergence, 125 g ai/ha, 0 to 100 scale (0 no effect, 100 complete control)
In short: as §1

[6] = test system: pigweed (Amaranthus retroflexus); assay: Test A postemergence, visual plant response rating; conditions: for Pigweed plant response rating (0 to 100 scale): 500 g ai/ha, postemergence, 0 is no effect, 100 is complete control; for Pigweed plant response rating: Postemergence, 125 g ai/ha, 0 to 100 scale (0 no effect, 100 complete control)
In short: as §1

[7] = test system: blackgrass (Alopecurus myosuroides); assay: Test A postemergence, visual plant response rating; conditions: for Blackgrass plant response rating (0 to 100 scale): 500 g ai/ha, postemergence, 0 is no effect, 100 is complete control; for Blackgrass plant response rating: Postemergence, 125 g ai/ha, 0 to 100 scale (0 no effect, 100 complete control)
In short: as §1

[8] = test system: Italian ryegrass (Lolium multiflorum); assay: Test A postemergence, visual plant response rating; conditions: for Ryegrass, Italian plant response rating (0 to 100 scale): 500 g ai/ha, postemergence, 0 is no effect, 100 is complete control; for Ryegrass, Italian plant response rating: Postemergence, 125 g ai/ha, 0 to 100 scale (0 no effect, 100 complete control)
In short: as §1

[9] = test system: wheat (Triticum aestivum); assay: Test A postemergence, visual plant response rating; conditions: for Wheat plant response rating (0 to 100 scale): 500 g ai/ha, postemergence, 0 is no effect, 100 is complete control; for Wheat plant response rating: Postemergence, 125 g ai/ha, 0 to 100 scale (0 no effect, 100 complete control)
In short: as §1

[10] = test system: kochia (Kochia scoparia); assay: Test A postemergence, visual plant response rating; conditions: for Kochia plant response rating (0 to 100 scale): 500 g ai/ha, postemergence, 0 is no effect, 100 is complete control; for Kochia plant response rating: Postemergence, 125 g ai/ha, 0 to 100 scale (0 no effect, 100 complete control)
In short: as §1

[11] = test system: foxtail, giant (giant foxtail, Setaria faberii); assay: Test A preemergence, visual plant response rating; conditions: for Foxtail, Giant plant response rating: 125 g ai/ha, preemergence, 0 to 100 scale, 0 no effect, 100 complete control; for Foxtail, Giant plant response rating (0 to 100 scale): 500 g ai/ha Preemergence, approx. 10 days
In short: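 Greenhouse pot test in loam–sand soil mix: compound in a surfactant-containing non-phytotoxic solvent applied preemergence (directed soil spray) or postemergence (one- to two-leaf plants, 2–10 cm). Injury scored visually after ~10 days, 0–100.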

[12] = test system: ragweed (common ragweed, Ambrosia elatior); assay: Test A preemergence, visual plant response rating; conditions: for Ragweed plant response rating: 125 g ai/ha, preemergence, 0 to 100 scale, 0 no effect, 100 complete control; for Ragweed plant response rating (0 to 100 scale): 500 g ai/ha Preemergence, approx. 10 days
In short: as §1

[13] = test system: barnyardgrass (Echinochloa crus-galli); assay: Test A preemergence, visual plant response rating; conditions: for Barnyardgrass plant response rating: 125 g ai/ha, preemergence, 0 to 100 scale, 0 no effect, 100 complete control; for Barnyardgrass plant response rating (0 to 100 scale): 500 g ai/ha Preemergence, approx. 10 days
In short: as §1

[14] = test system: pigweed (Amaranthus retroflexus); assay: Test A preemergence, visual plant response rating; conditions: for Pigweed plant response rating: 125 g ai/ha, preemergence, 0 to 100 scale, 0 no effect, 100 complete control; for Pigweed plant response rating (0 to 100 scale): 500 g ai/ha Preemergence, approx. 10 days
In short: as §1

[15] = test system: Italian ryegrass (Lolium multiflorum); assay: Test A preemergence, visual plant response rating; conditions: for Ryegrass, Italian plant response rating: 125 g ai/ha, preemergence, 0 to 100 scale, 0 no effect, 100 complete control; for Ryegrass, Italian plant response rating (0 to 100 scale): 500 g ai/ha Preemergence, approx. 10 days
In short: as §1

[16] = test system: kochia (Kochia scoparia); assay: Test A preemergence, visual plant response rating; conditions: for Kochia plant response rating: 125 g ai/ha, preemergence, 0 to 100 scale, 0 no effect, 100 complete control; for Kochia plant response rating (0 to 100 scale): 500 g ai/ha Preemergence, approx. 10 days
In short: as §1

[17] = test system: rice (Oryza sativa); assay: Test B flooded paddy test, visual plant response rating; conditions: 250 g ai/ha, Flood, applied to paddy water, 2-leaf stage, evaluated after 13 to 15 days
In short: (§2)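 Seedlings at 2 leaves; compound into paddy water (3 cm flood, maintained); 13–15 d greenhouse; visual score relative to controls.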

[18] = test system: sedge, umbrella (small-flower umbrella sedge, Cyperus difformis); assay: as above; conditions: 250 g ai/ha, Flood, applied to paddy water, 2-leaf stage, evaluated after 13 to 15 days
In short: as §2

[19] = test system: ducksalad (Heteranhera limosa); assay: as above; conditions: 250 g ai/ha, Flood, applied to paddy water, 2-leaf stage, evaluated after 13 to 15 days
In short: as §2

[20] = test system: barnyardgrass (Echinochloa crus-galli); assay: as above; conditions: 250 g ai/ha, Flood, applied to paddy water, 2-leaf stage, evaluated after 13 to 15 days
In short: as §2

Row | SMILES | Galium plant response rating (0 to 100 scale) [1] | Galium plant response rating [1] | Corn plant response rating (0 to 100 scale) [2] | Corn plant response rating [2] | Foxtail, Giant plant response rating (0 to 100 scale) [3] | Foxtail, Giant plant response rating [3] | Ragweed plant response rating (0 to 100 scale) [4] | Ragweed plant response rating [4] | Barnyardgrass plant response rating (0 to 100 scale) [5] | Barnyardgrass plant response rating [5] | Pigweed plant response rating (0 to 100 scale) [6] | Pigweed plant response rating [6] | Blackgrass plant response rating (0 to 100 scale) [7] | Blackgrass plant response rating [7] | Ryegrass, Italian plant response rating (0 to 100 scale) [8] | Ryegrass, Italian plant response rating [8] | Wheat plant response rating (0 to 100 scale) [9] | Wheat plant response rating [9] | Kochia plant response rating (0 to 100 scale) [10] | Kochia plant response rating [10] | further results
1 | Cc1ccc(Cl)cc1/C(=N\O)c1c(O)c(C)nn(C)c1=O [Compound 35] | 70 | 20 | 0 | 0 | 0 | 0 | 20 | 10 | 0 | 0 | 20 | 10 | 20 | 0 | 20 | 0 | 0 | 0 | 10 | 0 | Foxtail, Giant plant response rating [11]: 0; Foxtail, Giant plant response rating (0 to 100 scale) [11]: 0; Ragweed plant response rating [12]: 0; Ragweed plant response rating (0 to 100 scale) [12]: 10; Barnyardgrass plant response rating [13]: 0; Barnyardgrass plant response rating (0 to 100 scale) [13]: 0; Pigweed plant response rating [14]: 0; Pigweed plant response rating (0 to 100 scale) [14]: 0; Ryegrass, Italian plant response rating [15]: 0; Ryegrass, Italian plant response rating (0 to 100 scale) [15]: 10; Kochia plant response rating [16]: 0; Kochia plant response rating (0 to 100 scale) [16]: 0; Plant response rating, Rice (0 to 100 scale, 0 is no effect, 100 is complete control) [17]: 0; Plant response rating, Sedge, Umbrella (0 to 100 scale, 0 is no effect, 100 is complete control) [18]: 0; Plant response rating, Ducksalad (0 to 100 scale, 0 is no effect, 100 is complete control) [19]: 0; Plant response rating, Barnyardgrass (0 to 100 scale, 0 is no effect, 100 is complete control) [20]: 0
2 | C=CCO/N=C(\c1c(O)c(C)nn(C)c1=O)c1ccc(F)c2ccccc12 [Compound 86] | 100 | 70 | 20 | 0 | 80 | 70 | 100 | 100 | 80 | 50 | 80 | 70 | 90 | 90 | 100 | 90 | 80 | 50 | 50 | 40 | Foxtail, Giant plant response rating [11]: 100; Foxtail, Giant plant response rating (0 to 100 scale) [11]: 100; Ragweed plant response rating [12]: 80; Ragweed plant response rating (0 to 100 scale) [12]: 100; Barnyardgrass plant response rating [13]: 90; Barnyardgrass plant response rating (0 to 100 scale) [13]: 90; Pigweed plant response rating [14]: 90; Pigweed plant response rating (0 to 100 scale) [14]: 100; Ryegrass, Italian plant response rating [15]: 100; Ryegrass, Italian plant response rating (0 to 100 scale) [15]: 100; Kochia plant response rating [16]: 20; Kochia plant response rating (0 to 100 scale) [16]: 30; Plant response rating, Rice (0 to 100 scale, 0 is no effect, 100 is complete control) [17]: 0; Plant response rating, Sedge, Umbrella (0 to 100 scale, 0 is no effect, 100 is complete control) [18]: 0; Plant response rating, Ducksalad (0 to 100 scale, 0 is no effect, 100 is complete control) [19]: 0; Plant response rating, Barnyardgrass (0 to 100 scale, 0 is no effect, 100 is complete control) [20]: 0
3 | CON=C(c1c(O)c(C)nn(C)c1=O)c1ccc(C)c2ccccc12 [Compound 131] | 80 | 80 | 20 | 0 | 50 | 10 | 80 | 80 | 50 | 20 | 10 | 0 | 50 | 30 | 10 | 0 | 0 | 0 | 30 | 10 | Foxtail, Giant plant response rating [11]: 60; Foxtail, Giant plant response rating (0 to 100 scale) [11]: 70; Ragweed plant response rating [12]: 60; Ragweed plant response rating (0 to 100 scale) [12]: 80; Barnyardgrass plant response rating [13]: 0; Barnyardgrass plant response rating (0 to 100 scale) [13]: 60; Pigweed plant response rating [14]: 0; Pigweed plant response rating (0 to 100 scale) [14]: 0; Ryegrass, Italian plant response rating [15]: 0; Ryegrass, Italian plant response rating (0 to 100 scale) [15]: 0; Kochia plant response rating [16]: 0; Kochia plant response rating (0 to 100 scale) [16]: 20; Plant response rating, Rice (0 to 100 scale, 0 is no effect, 100 is complete control) [17]: 0; Plant response rating, Sedge, Umbrella (0 to 100 scale, 0 is no effect, 100 is complete control) [18]: 0; Plant response rating, Ducksalad (0 to 100 scale, 0 is no effect, 100 is complete control) [19]: 0; Plant response rating, Barnyardgrass (0 to 100 scale, 0 is no effect, 100 is complete control) [20]: 0
